Measurements taken from ChEMBL document CHEMBL5143597, “Design and synthesis of novel spirocyclic carboxylic acids as potent and orally bioavailable DGAT1 inhibitors and their biological evaluation” (Bioorg Med Chem Lett, 2022).

Experiments:
[1] = Drug distribution in Wistar rat liver 10 mg/kg, po and measured at 8 hrs post dose by LC-MS/MS analysis; assay type: ADME, organism-based; details: read-out: Ct
[2] = Drug distribution in Wistar rat liver 10 mg/kg, po and measured at 1 hrs post dose by LC-MS/MS analysis; assay type: ADME, organism-based; details: read-out: Ct
[3] = Drug distribution in Wistar rat adipose tissue 10 mg/kg, po and measured at 8 hrs post dose by LC-MS/MS analysis; assay type: ADME, organism-based; details: read-out: Ct
[4] = Oral bioavailability in Wistar rat at 10 mg/kg or 3 mg/kg, iv and measured up to 24 hrs by LC-MS/MS analysis; assay type: ADME, organism-based; details: in vivo
[5] = AUC in C57BL/6 mouse at 5 mg/kg, iv or 10 mg/kg, po and measured up to 24 hrs by LC-MS/MS analysis; assay type: ADME, organism-based; design: time < 24 hrs, dose 5 mg/kg, route iv; details: in vivo
[6] = Metabolic stability in mouse liver microsomes assessed as parent compound remaining at 1 uM and measured at 30 mins by LC-MS/MS analysis; assay type: ADME, Microsome; details: read-out: Stability
[7] = Drug distribution in C57BL/6 mouse plasma 10 mg/kg, po and measured at 1 hrs post dose by LC-MS/MS analysis; assay type: ADME, organism-based
[8] = Drug distribution in C57BL/6 mouse plasma 10 mg/kg, po and measured at 2 hrs post dose by LC-MS/MS analysis; assay type: ADME, organism-based
[9] = Clearance in Wistar rat at 3 mg/kg, iv or 10 mg/kg, po and measured up to 24 hrs by LC-MS/MS analysis; assay type: ADME, organism-based; details: in vivo
[10] = Clearance in C57BL/6 mouse at 5 mg/kg, iv r 10 mg/kg, po and measured up to 24 hrs by LC-MS/MS analysis; assay type: ADME, organism-based; details: in vivo
[11] = Drug distribution in C57BL/6 mouse brain 10 mg/kg, po and measured at 2 hrs post dose by LC-MS/MS analysis; assay type: ADME, organism-based; details: read-out: Ct
[12] = Cmax in Wistar rat at 3 mg/kg, iv or 10 mg/kg, po and measured up to 24 hrs by LC-MS/MS analysis; assay type: ADME, organism-based; design: dose 3 mg/kg, time < 24 hrs, route iv; details: in vivo
[13] = Drug distribution in Wistar rat adipose tissue 10 mg/kg, po and measured at 2 hrs post dose by LC-MS/MS analysis; assay type: ADME, organism-based; details: read-out: Ct
[14] = Metabolic stability in rat liver microsomes assessed as parent compound remaining at 1 uM and measured at 30 mins by LC-MS/MS analysis; assay type: ADME, Microsome; details: read-out: Stability
[15] = Drug distribution in C57BL/6 mouse plasma 10 mg/kg, po and measured at 8 hrs post dose by LC-MS/MS analysis; assay type: ADME, organism-based
[16] = Drug distribution in C57BL/6 mouse skeletal muscle 10 mg/kg, po and measured at 2 hrs post dose by LC-MS/MS analysis; assay type: ADME, organism-based, Skeletal muscle tissue; details: read-out: Ct
[17] = Drug distribution in C57BL/6 mouse adipose tissue 10 mg/kg, po and measured at 1 hrs post dose by LC-MS/MS analysis; assay type: ADME, organism-based; details: read-out: Ct
[18] = Half life in Wistar rat at 3 mg/kg, iv or 10 mg/kg, po and measured up to 24 hrs by LC-MS/MS analysis; assay type: ADME, organism-based; details: in vivo
[19] = molecular target: hERG (KCNH2) (Homo sapiens, UniProt Q12809); assay: Displacement of [3H]astemizole from human ERG expressed in HEK293 cell membrane at 30 uM for 2 hrs by Radiometric displacement assay; assay type: toxicity; details: HEK293 cell membranes that express hERG, probe [3H]astemizole
Sequence of hERG (KCNH2) (Q12809 whole entry): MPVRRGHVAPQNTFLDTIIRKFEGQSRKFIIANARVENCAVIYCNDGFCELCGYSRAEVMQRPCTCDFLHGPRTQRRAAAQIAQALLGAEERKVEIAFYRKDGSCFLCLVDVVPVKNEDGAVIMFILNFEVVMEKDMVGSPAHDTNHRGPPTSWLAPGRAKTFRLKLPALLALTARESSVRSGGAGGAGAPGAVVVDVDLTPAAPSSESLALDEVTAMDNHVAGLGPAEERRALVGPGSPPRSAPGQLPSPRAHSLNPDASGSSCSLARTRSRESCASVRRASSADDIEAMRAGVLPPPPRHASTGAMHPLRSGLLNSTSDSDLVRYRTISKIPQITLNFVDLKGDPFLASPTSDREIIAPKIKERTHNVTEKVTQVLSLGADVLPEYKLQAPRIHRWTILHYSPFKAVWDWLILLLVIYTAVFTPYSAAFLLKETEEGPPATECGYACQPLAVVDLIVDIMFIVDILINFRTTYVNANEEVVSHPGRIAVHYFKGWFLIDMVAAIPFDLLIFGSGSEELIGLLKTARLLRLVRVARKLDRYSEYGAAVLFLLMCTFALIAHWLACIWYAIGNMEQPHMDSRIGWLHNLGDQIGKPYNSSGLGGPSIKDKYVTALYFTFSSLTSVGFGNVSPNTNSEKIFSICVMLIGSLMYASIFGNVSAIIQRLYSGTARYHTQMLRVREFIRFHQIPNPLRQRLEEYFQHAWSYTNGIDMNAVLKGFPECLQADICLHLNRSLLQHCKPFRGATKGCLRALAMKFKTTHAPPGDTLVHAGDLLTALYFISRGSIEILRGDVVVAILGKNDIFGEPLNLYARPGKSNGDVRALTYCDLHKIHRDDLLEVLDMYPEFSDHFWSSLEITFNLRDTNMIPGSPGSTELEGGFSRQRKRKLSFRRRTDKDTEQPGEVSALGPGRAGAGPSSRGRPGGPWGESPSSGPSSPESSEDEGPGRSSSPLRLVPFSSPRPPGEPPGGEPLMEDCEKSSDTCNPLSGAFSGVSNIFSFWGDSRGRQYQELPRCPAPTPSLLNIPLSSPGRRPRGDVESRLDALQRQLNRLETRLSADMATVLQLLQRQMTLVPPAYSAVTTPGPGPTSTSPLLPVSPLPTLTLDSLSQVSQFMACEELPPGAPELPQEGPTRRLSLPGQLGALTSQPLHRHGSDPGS

[20] = Plasma protein binding in rat; assay type: ADME, cell-free; details: read-out: PPB
[21] = Cmax in C57BL/6 mouse at 5 mg/kg, iv or 10 mg/kg, po and measured up to 24 hrs by LC-MS/MS analysis; assay type: ADME, organism-based; design: dose 5 mg/kg, time < 24 hrs, route iv; details: in vivo
[22] = Volume of distribution at steady state in Wistar rat at 3 mg/kg, iv or 10 mg/kg, po and measured up to 24 hrs by LC-MS/MS analysis; assay type: ADME, organism-based; details: in vivo, read-out: Vdss
[23] = Drug distribution in Wistar rat adipose tissue 10 mg/kg, po and measured at 1 hrs post dose by LC-MS/MS analysis; assay type: ADME, organism-based; details: read-out: Ct
[24] = Drug distribution in C57BL/6 mouse adipose tissue 10 mg/kg, po and measured at 2 hrs post dose by LC-MS/MS analysis; assay type: ADME, organism-based; details: read-out: Ct
[25] = Oral bioavailability in C57BL/6 mouse 10 mg/kg or 5 mg/kg, iv and measured up to 24 hrs by LC-MS/MS analysis; assay type: ADME, organism-based; details: in vivo
[26] = AUC in Wistar rat at 3 mg/kg, iv or 10 mg/kg, po and measured up to 24 hrs by LC-MS/MS analysis; assay type: ADME, organism-based; design: dose 3 mg/kg, time < 24 hrs, route iv; details: in vivo
[27] = Drug distribution in Wistar rat plasma 10 mg/kg, po and measured at 1 hrs post dose by LC-MS/MS analysis; assay type: ADME, organism-based
[28] = Drug distribution in Wistar rat plasma 10 mg/kg, po and measured at 2 hrs post dose by LC-MS/MS analysis; assay type: ADME, organism-based
[29] = Drug distribution in Wistar rat plasma 10 mg/kg, po and measured at 8 hrs post dose by LC-MS/MS analysis; assay type: ADME, organism-based
[30] = Half life in C57BL/6 mouse at 5 mg/kg, iv or 10 mg/kg, po and measured up to 24 hrs by LC-MS/MS analysis; assay type: ADME, organism-based; details: in vivo
[31] = Metabolic stability in human liver microsomes assessed as parent compound remaining at 1 uM and measured at 30 mins by LC-MS/MS analysis; assay type: ADME, Microsome; details: read-out: Stability
[32] = Drug distribution in Wistar rat liver 10 mg/kg, po and measured at 2 hrs post dose by LC-MS/MS analysis; assay type: ADME, organism-based; details: read-out: Ct
[33] = Tmax in C57BL/6 mouse at 5 mg/kg, iv or 10 mg/kg, po and measured up to 24 hrs by LC-MS/MS analysis; assay type: ADME, organism-based; details: in vivo
[34] = Drug distribution in C57BL/6 mouse liver 10 mg/kg, po and measured at 1 hrs post dose by LC-MS/MS analysis; assay type: ADME, organism-based; details: read-out: Ct
[35] = Drug distribution in C57BL/6 mouse brain 10 mg/kg, po and measured at 8 hrs post dose by LC-MS/MS analysis; assay type: ADME, organism-based; details: read-out: Ct
[36] = Drug distribution in C57BL/6 mouse brain 10 mg/kg, po and measured at 1 hrs post dose by LC-MS/MS analysis; assay type: ADME, organism-based; details: read-out: Ct
[37] = Drug distribution in C57BL/6 mouse skeletal muscle 10 mg/kg, po and measured at 1 hrs post dose by LC-MS/MS analysis; assay type: ADME, organism-based, Skeletal muscle tissue; details: read-out: Ct
[38] = Tmax in Wistar rat at 3 mg/kg, iv or 10 mg/kg, po and measured up to 24 hrs by LC-MS/MS analysis; assay type: ADME, organism-based; details: in vivo
[39] = Drug distribution in C57BL/6 mouse liver 10 mg/kg, po and measured at 8 hrs post dose by LC-MS/MS analysis; assay type: ADME, organism-based; details: read-out: Ct
[40] = Volume of distribution at steady state in C57BL/6 mouse at 5 mg/kg, iv or 10 mg/kg, po and measured up to 24 hrs by LC-MS/MS analysis; assay type: ADME, organism-based; details: in vivo, read-out: Vdss
[41] = Drug distribution in C57BL/6 mouse skeletal muscle 10 mg/kg, po and measured at 8 hrs post dose by LC-MS/MS analysis; assay type: ADME, organism-based, Skeletal muscle tissue; details: read-out: Ct
[42] = Drug distribution in C57BL/6 mouse liver 10 mg/kg, po and measured at 2 hrs post dose by LC-MS/MS analysis; assay type: ADME, organism-based; details: read-out: Ct
[43] = Drug distribution in C57BL/6 mouse adipose tissue 10 mg/kg, po and measured at 8 hrs post dose by LC-MS/MS analysis; assay type: ADME, organism-based; details: read-out: Ct
[44] = Plasma protein binding in mouse; assay type: ADME, cell-free; details: read-out: PPB (converted)
[45] = Apparent permeability across apical to basolateral side in MDCK cells at 2.5 uM for 90 mins; assay type: ADME, cell-based, Canis lupus familiaris; details: dog

concentration at 8 h [1]: 32000 nM
concentration at 1 h [2]: 105000 nM
concentration at 8 h [3]: 340 nM
bioavailability [4]: 92%
AUC at 24 h [5]: 2.9 µM·h
remaining at 0.5 h, 1 µM [6]: 94%
concentration at 1 h [7]: 1900 nM
concentration at 2 h [8]: 1160 nM
clearance [9]: 2.3 mL/min/kg
clearance [10]: 58 mL/min/kg
concentration at 2 h [11]: 260 nM
Cmax [12]: 57000 nM
concentration at 2 h [13]: 2500 nM
remaining at 0.5 h, 1 µM [14]: 92%
concentration at 8 h [15]: 40 nM
concentration at 2 h [16]: 180 nM
concentration at 1 h [17]: 270 nM
half-life [18]: 210 min
fraction unbound [20]: 0.01
Cmax [21]: 4500 nM
Vd [22]: 0.3 L/kg
concentration at 1 h [23]: 1890 nM
concentration at 2 h [24]: 140 nM
bioavailability [25]: 97%
AUC at 24 h [26]: 47 µM·h
concentration at 1 h [27]: 37000 nM
concentration at 2 h [28]: 47000 nM
concentration at 8 h [29]: 4000 nM
half-life [30]: 60 min
remaining at 0.5 h, 1 µM [31]: 89%
concentration at 2 h [32]: 72000 nM
Tmax [33]: 30 min
concentration at 1 h [34]: 153000 nM
concentration at 8 h [35]: 110 nM
concentration at 1 h [36]: 360 nM
concentration at 1 h [37]: 170 nM
Tmax [38]: 30 min
concentration at 8 h [39]: 5300 nM
Vd [40]: 2.5 L/kg
concentration at 8 h [41]: 20 nM
concentration at 2 h [42]: 96000 nM
concentration at 8 h [43]: 80 nM
fraction unbound [44]: 0.02
Papp A→B at 1.5 h, 2.5 µM [45]: 2.8 ×10⁻⁶ cm/s
SMILES: O=C(Nc1ccc(N2CCC3(CC2)CC(C(=O)O)C3)nc1)c1nnc(Nc2ccc(F)c(F)c2)o1
inhibition at 2 h, 30 µM [19]: 22%
